Key:
[1] = tested on: MM cell lines ARP1, ARK, MM.1S, MM.1R and U266; assay: MTS cell growth assay, all tested MM cell lines; type: cell-based, human; settings: 0 to 1 mM, 1 or 3 days
Description: (§1) MM cell lines ARP1, ARK, MM.1S, MM.1R and U266 were maintained in RPMI-1640 medium supplemented with 10% fetal bovine serum, 100 U/ml penicillin and 100 μg/ml streptomycin at 37° C. and 5% CO2 Primary MM cells and MM BMSCs were isolated from bone marrow aspirates of myeloma patients. PBMCs were obtained from healthy volunteers. The study was approved by the Institutional Review Board at The University of Texas M.D. Anderson Cancer Center. Anti-caspase-3, caspase-9, PARP, Bim, XIAP, cyclin D1, pp 70S6K (Thr389) and p27(Kip1) antibodies were purchased from Cell Signaling. Anti-bcl-2, Bc1-XL, Akt, pAkt (Thr 308), pAkt (Ser 473), p70S6K and β-actin antibodies were purchased from Santa Cruz. Compound A was dissolved in DMSO at 10 mM as stock solution. Dexamethasone and Propidium iodide (PI) were purchased from Sigma-Aldrich. Recombinant human IL6 was purchased from R&D Systems. FITC conjugated Annexin V was obtained from Invitrogen.
All experiments were performed in triplicate.
(A). Five MM cell lines ARP1, ARK, MM.1S, MM.1R and U266 were cultured in the presence of 0 to 1 mM compound A. Cells were harvested after 1 day or 3 days of treatment. Compound A induced MM cell apoptosis were measured by Annexin V staining as described in Materials and Methods. (B). Same MM cell lines were treated with 0 to 1 mM compound A for 1 or 3 days. Cell growths were assessed by MTS assay. (C). […]

[2] = tested on: caspase 3, caspase 9 and PARP in ARP1, MM.1S and MM.1R; assay: Western blotting, caspases activation; type: cell-based, human; settings: 10 μM
Description: as §1
To elucidate compound A induced MM cell apoptosis, MM cell lines ARP1, MM.1S and MM.1R, treated with or without compound A for 24 hours, were assessed by Western blotting analysis.
(A). […] Compound A induced activation and cleavage of caspase-3, caspase-9 and PARP is shown. (B). Same MM cells treated with 10 μM compound A were lysed for western blotting. (C) RP1 cells were treated with 10 μM compound A for 1, 6, 12 and 24 hours.

[3] = 24 hours, ARP1, MM.1S and MM.1R

SMILES: Nc1cc(C(F)(F)F)c(-c2cc(N3CCOCC3)nc(N3CCOCC3)n2)cn1 [compound A, 5-(2,6-di-morpholin-4-yl-pyrimidin-4-yl)-4-trifluoromethyl-pyridin-2-ylamine]
- MM cells growth inhibition [1]: dose dependent growth inhibition
- caspase 3 cleavage [2, 3]: cleavage
- caspase 9 cleavage [2, 3]: cleavage
- PARP cleavage ([2]; all tested cell lines): detected

Reference: patent US20130310352A1, “DEXAMETHASONE COMBINATION THERAPY” (priority 2010, published 2013)
